Assay results as given in ChEMBL document CHEMBL3351728, “3-alkoxy-pyrrolo[1,2-b]pyrazolines as selective androgen receptor modulators with ideal physicochemical properties for transdermal administration” (J Med Chem, 2014).
≈ marks a conversion by molar mass, not a printed value. Calls of active or inactive are those of the source. The calls are words filed in the database; no cut-off is given here.

Experiments:
Zone of skin = test: Skin permeability in human cadaver skin in Franz diffusion cell system; type: ADME
[1] = Skin permeability by silicone and isopropyl myristate (70:30) containing artificial membranes based skin PAMPA method; type: ADME
[2] = Thermodynamic solubility of the compound at pH 7.4; type: physicochemical; settings: buffer, read-out: Therm_solubility
[3] = Skin drug retention by silicone and isopropyl myristate (70:30) containing artificial membranes based skin PAMPA method
Androgen receptor [4] = target: T1, Androgen receptor (Homo sapiens, UniProt P10275)
T1 sequence (P10275 whole entry): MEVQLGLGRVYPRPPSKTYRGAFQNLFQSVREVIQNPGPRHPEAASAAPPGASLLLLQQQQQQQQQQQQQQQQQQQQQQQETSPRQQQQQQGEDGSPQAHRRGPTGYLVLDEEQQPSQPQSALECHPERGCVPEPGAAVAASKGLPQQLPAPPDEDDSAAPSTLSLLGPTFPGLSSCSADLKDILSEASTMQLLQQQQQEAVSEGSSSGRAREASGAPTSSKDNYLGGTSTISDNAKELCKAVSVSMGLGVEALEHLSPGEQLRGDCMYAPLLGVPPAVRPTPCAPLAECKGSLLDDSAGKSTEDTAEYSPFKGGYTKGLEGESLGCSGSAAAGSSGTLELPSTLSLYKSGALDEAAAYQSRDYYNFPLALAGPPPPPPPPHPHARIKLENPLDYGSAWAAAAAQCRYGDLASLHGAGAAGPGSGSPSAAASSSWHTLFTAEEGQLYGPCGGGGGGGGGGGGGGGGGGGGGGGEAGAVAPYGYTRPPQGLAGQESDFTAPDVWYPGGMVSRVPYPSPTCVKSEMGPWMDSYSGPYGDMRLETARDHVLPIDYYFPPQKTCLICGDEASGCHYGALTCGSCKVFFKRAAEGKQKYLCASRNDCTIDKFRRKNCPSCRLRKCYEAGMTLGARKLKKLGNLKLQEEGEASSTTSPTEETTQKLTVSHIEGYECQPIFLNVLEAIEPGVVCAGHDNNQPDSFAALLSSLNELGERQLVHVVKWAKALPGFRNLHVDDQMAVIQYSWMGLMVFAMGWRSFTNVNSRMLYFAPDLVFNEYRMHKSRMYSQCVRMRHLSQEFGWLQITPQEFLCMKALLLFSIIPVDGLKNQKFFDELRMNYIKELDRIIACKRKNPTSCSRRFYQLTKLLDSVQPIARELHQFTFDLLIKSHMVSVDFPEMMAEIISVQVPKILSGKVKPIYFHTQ

[5] = target: T2, Androgen receptor (Homo sapiens) (UniProt P10275); test: Agonist activity at human androgen receptor expressed in mouse C2C12 cells by androgen-specific response element-driven luciferase reporter gene assay relative to DHT; type: cell-based
T2 sequence (whole entry): T1 sequence (P10275 whole entry)

[6] = Lipophilicity, logP of the compound; type: physicochemical; settings: octanol/water
Glucocorticoid receptor = target: T3, Glucocorticoid receptor (Homo sapiens, UniProt P04150); test: Binding affinity to glucocorticoid receptor (unknown origin) incubated for 4 hrs
T3 sequence (P04150 whole entry): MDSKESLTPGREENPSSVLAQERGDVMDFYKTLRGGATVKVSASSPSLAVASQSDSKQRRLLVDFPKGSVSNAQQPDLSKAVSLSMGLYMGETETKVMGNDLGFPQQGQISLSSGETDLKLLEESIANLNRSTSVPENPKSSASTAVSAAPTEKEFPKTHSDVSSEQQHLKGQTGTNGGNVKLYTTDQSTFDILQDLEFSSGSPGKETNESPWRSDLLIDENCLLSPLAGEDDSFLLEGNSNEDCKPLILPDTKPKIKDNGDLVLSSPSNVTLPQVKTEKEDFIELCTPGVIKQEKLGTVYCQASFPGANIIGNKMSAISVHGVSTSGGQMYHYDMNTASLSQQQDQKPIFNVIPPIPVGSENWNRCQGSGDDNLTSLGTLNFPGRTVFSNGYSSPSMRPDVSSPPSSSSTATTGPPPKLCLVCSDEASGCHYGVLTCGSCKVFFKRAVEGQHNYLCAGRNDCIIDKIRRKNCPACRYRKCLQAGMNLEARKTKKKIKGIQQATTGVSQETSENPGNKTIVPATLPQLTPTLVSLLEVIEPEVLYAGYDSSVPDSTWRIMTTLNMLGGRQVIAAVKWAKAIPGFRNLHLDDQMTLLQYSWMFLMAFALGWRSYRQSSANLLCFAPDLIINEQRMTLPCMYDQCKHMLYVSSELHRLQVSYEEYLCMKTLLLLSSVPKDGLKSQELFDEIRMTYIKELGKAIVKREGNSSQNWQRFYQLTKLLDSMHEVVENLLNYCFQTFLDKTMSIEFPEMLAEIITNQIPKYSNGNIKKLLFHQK

[7] = Volume of distribution in Wistar rat at 1 mg/kg, iv; type: ADME, organism-based; design: dose 1 mg/kg, route intravenous; settings: in vivo
[8] = Cmax in Wistar rat at 0.5 mg/kg, sc; type: ADME, organism-based; design: dose 0.5 mg/kg, route subcutaneous; settings: in vivo
Estrogen receptor = target: T4, Estrogen receptor (Homo sapiens, UniProt P03372); test: Binding affinity to estrogen receptor (unknown origin) incubated for 4 hrs
T4 sequence (P03372 whole entry): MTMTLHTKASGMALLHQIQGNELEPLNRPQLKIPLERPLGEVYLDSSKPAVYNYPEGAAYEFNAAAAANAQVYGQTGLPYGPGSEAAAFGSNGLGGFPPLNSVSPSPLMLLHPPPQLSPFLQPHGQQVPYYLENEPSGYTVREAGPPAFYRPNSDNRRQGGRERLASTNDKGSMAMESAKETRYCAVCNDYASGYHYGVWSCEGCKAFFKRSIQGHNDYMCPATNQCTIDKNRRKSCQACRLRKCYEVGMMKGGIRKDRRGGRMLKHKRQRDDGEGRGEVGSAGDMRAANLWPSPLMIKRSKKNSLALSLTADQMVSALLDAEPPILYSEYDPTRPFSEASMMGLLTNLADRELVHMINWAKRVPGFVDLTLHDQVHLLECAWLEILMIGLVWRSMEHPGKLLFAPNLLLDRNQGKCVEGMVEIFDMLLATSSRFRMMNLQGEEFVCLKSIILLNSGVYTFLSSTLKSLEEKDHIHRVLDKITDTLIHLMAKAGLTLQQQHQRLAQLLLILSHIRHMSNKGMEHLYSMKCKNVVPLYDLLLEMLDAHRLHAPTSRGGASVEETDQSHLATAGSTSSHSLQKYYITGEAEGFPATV

Progesterone receptor = target: T5, Progesterone receptor (Homo sapiens, UniProt P06401); test: Binding affinity to progesterone receptor (unknown origin) incubated for 4 hrs
T5 sequence (P06401 whole entry): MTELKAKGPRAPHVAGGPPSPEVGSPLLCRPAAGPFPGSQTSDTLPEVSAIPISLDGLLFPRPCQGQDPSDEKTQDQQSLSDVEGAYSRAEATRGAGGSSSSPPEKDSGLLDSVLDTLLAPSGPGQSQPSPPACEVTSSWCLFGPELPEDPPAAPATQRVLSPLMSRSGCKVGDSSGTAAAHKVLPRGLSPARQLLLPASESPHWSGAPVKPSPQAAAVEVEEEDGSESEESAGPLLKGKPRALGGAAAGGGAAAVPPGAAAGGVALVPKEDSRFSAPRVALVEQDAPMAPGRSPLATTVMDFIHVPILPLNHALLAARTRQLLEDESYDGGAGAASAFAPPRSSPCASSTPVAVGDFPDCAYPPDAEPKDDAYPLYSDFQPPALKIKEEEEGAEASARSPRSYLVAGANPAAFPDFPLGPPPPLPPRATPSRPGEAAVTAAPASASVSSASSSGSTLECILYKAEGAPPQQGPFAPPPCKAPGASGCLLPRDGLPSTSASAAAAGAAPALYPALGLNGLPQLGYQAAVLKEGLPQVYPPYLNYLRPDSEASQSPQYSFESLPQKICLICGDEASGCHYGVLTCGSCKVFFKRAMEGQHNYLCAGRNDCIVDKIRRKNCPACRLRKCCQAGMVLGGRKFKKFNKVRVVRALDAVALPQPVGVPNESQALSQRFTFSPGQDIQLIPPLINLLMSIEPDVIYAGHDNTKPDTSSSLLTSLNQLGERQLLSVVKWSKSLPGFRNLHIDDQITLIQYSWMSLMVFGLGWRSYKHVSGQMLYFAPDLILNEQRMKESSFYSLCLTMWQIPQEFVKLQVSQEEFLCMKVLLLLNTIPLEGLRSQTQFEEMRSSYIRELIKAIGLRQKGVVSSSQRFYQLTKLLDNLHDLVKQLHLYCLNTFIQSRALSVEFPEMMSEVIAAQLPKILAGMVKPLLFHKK

Rattus norvegicus [9] = test: AUC (0 to 48 hrs) in Wistar rat at 0.5 mg/kg, sc; type: ADME, organism-based, Plasma; design: time < 48 hr, dose 0.5 mg/kg, route subcutaneous; settings: in vivo
Rattus norvegicus [10] = test: Anabolic activity in orchidectomized rat assessed as stimulation of bulbocavernosus/levator ani muscle weight treated at 0.3 mg/kg, sc once daily for 14 days by Hershberger assay; type: functional, organism-based; design: dose 0.3 mg/kg
Rattus norvegicus [11] = test: Anabolic activity in orchidectomized rat assessed as stimulation of bulbocavernosus/levator ani muscle weight treated subcutaneously once daily for 14 days by Hershberger assay; type: functional
Rattus norvegicus [12] = test: Bioavailability in Wistar rat at 0.5 mg/kg, sc; type: ADME, organism-based; settings: in vivo
[13] = AUC (0 to infinity) in Wistar rat at 1 mg/kg, iv; type: ADME, organism-based; design: dose 1 mg/kg, route intravenous, time infinity; settings: plasma
Rattus norvegicus [14] = test: Androgenic activity in orchidectomized rat assessed as stimulation of prostate weight treated subcutaneously once daily for 14 days by Hershberger assay; type: organism-based; settings: Prostate gland, sc, 336 h
[15] = Terminal half life in Wistar rat at 1 mg/kg, iv; type: ADME, organism-based; design: dose 1 mg/kg, route intravenous; settings: in vivo, read-out: beta t1/2 (converted)
[16] = Tmax in Wistar rat at 0.5 mg/kg, sc; type: ADME, organism-based; design: dose 0.5 mg/kg, route subcutaneous; settings: in vivo
Androgen receptor [17] = target: T1, Androgen receptor; test: Displacement of [3H]DHT from androgen receptor in human MDA-MB-435 cells after 30 mins; type: cell-based
Rattus norvegicus [18] = test: Androgenic activity in orchidectomized rat assessed as stimulation of prostate weight treated at 0.3 mg/kg, sc once daily for 14 days by Hershberger assay; type: organism-based, Prostate gland; design: dose 0.3 mg/kg, route subcutaneous; settings: in vivo, 336 h

Row | Compound | Jss (Zone of skin) [ug/cm2.hr] | permeability [1] | solubility thermodynamic [2] [µg/mL] | Drug uptake [3] | EC50 (Androgen receptor [4]) [nM] | Emax [5] [%] | logP [6] | other results
1 | CO[C@@H]1C(c2ccc(C#N)c(Cl)c2C)=NN2CC(F)(F)C[C@@H]12 | 0.06 | permeable | 10 (≈ 30.7 µM) | Active | 0.3 | 100 | 3.2 | 
2 | CO[C@@H]1C(c2ccc(C#N)c(Cl)c2C)=NN2C[C@H](O)C[C@@H]12 |  |  |  |  | 9.7 | 75 |  | 
3 | CCO[C@@H]1C(c2ccc(C#N)c(Cl)c2C)=NN2CC[C@H](O)[C@@H]12 | 0.9 | permeable | 250 (≈ 782 µM) | inactive | 1 | 98.3 | 2.4 | 
4 | CO[C@@H]1C(c2ccc(C#N)c(Cl)c2C)=NN2CC[C@H](O)[C@@H]12 | 2 | permeable | 1300 (≈ 4250 µM) | inactive |  | 97 | 2 | IC50 (Glucocorticoid receptor): > 1000 nM; Vd [7]: 4.6 L/kg; Cmax [8]: 79 ng/mL; IC50 (Estrogen receptor): > 1000 nM; IC50 (Progesterone receptor): 700 nM; AUC (Rattus norvegicus [9]): 670 ng·h/mL; Activity (Rattus norvegicus [10]): Active; Activity (Rattus norvegicus [11]): Dose-dependent effect; ED50 (Rattus norvegicus [11]; sc, 336 h): 0.07 mg/kg; F (Rattus norvegicus [12]): 75%; AUC(0-inf) [13]: 708 ng·h/mL; ED50 (Rattus norvegicus [14]): 2.73 mg/kg; half-life [15]: 5.7 h; Tmax [16]: 1.5 h; IC50 (Androgen receptor [17]): 0.7 nM; Activity (Rattus norvegicus [18]): Non-toxic
5 | COCCO[C@@H]1C(c2ccc(C#N)c(Cl)c2C)=NN2CC[C@H](O)[C@@H]12 | 1.1 |  | 2300 (≈ 6570 µM) |  |  | 82 | 2 | 
6 | CO[C@@H]1C(c2ccc(C#N)c(Cl)c2C)=NN2CC[C@H](F)[C@@H]12 |  |  |  |  | 1.5 | 93.5 |  | 
7 | Cc1c(C2=NN3CC[C@H](O)[C@H]3[C@@H]2OC(C)C)ccc(C#N)c1Cl |  |  |  |  | 4.5 | 102 |  | 
8 | CO[C@H]1CCN2N=C(c3ccc(C#N)c(Cl)c3C)[C@@H](OC)[C@H]12 |  |  |  |  |  | 82 |  | 
